Data: patent US12514900B2, “Method to identify responders to osteoarthritis therapeutics” (OrthoTrophix, Inc., priority 2020, dated 2026)
Where no end group is shown, it is not given here.

How the values were obtained:
subjects with knee OA [1] = conditions: cited from earlier work
human and rat bone cells = conditions: human and rat/murine orthologues; cited from earlier work
[2] = target: integrin αVβ3 expressed by osteocytes (Homo sapiens, UniProt P05106+P06756); conditions: cited from earlier work
[3] = test system: subjects with bilateral knee osteoarthritis; conditions: human, in vivo
Procedure: Eighteen (18) orthopedic, rheumatologic and family practice centers in the U.S. participated in the study.
On the first dosing day, the randomized subjects were assessed by physical examinations and vital signs. Further, they completed the Knee injury and Osteoarthritis Outcome Score (KOOS), which includes the Western Ontario and McMaster Universities Osteoarthritis Index (WOMAC). The KOOS questionnaire assesses knee-specific activities of daily living, sports and recreation, knee-related quality of life, other symptoms such as stiffness, and knee pain. […] After assessments were completed, subjects received one intra-articular injection in each knee, with each injection prepared from the vial(s) marked for that knee. […] Subjects were monitored for adverse events during the injections and for a few hours after the injections. Vital signs were also monitored after the injections.
On the 7th, 14th, and 21st days after the first dosing, subjects received the second, third, and fourth (last) dosing of the same study materials, respectively. Safety and adverse event assessments were obtained as on the first dosing day.
Subjects returned to their respective study sites at 3, 6 and 12 months after the first dosing day for follow-up evaluations. In addition, the study sites monitored the subject's condition through telephone contact 9 months after the first dosing day. During the 3, 6, and 12 months post-treatment, subjects were evaluated on site with physical examinations, vital signs, serum chemistries, as well as completing patient-reported outcomes including the KOOS. Adverse events and concomitant medications were recorded. MRIs of both knees were obtained during the 6 and 12-month visits.

subjects with knee OA [4] = conditions: cited from earlier work; remark: listed apart in the source

Sequence of integrin αVβ3 expressed by osteocytes (P06756 31-889 limits assumed): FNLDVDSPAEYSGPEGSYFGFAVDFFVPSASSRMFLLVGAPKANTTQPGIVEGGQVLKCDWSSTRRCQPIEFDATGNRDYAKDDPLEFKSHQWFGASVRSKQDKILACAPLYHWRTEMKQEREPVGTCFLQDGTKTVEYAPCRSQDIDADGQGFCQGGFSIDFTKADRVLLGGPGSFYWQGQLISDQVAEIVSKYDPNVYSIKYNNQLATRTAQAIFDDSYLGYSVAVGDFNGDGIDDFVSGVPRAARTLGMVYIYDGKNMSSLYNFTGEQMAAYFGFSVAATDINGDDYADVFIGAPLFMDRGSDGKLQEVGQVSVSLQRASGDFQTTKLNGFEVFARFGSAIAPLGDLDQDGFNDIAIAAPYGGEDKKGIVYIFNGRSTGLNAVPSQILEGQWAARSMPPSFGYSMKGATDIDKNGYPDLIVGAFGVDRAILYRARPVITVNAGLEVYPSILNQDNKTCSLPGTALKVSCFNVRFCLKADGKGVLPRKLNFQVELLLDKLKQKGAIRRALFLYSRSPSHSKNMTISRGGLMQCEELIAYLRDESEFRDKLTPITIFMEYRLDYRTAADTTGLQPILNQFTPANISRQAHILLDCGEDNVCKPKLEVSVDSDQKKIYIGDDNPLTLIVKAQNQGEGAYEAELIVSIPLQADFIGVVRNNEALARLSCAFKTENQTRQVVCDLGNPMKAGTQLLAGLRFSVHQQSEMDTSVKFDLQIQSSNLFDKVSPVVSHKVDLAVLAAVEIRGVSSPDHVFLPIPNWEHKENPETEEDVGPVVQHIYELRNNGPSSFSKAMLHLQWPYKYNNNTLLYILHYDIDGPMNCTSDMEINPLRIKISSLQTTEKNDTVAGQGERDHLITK
Sequence of integrin αVβ3 expressed by osteocytes (P06756 891-1048 limits assumed): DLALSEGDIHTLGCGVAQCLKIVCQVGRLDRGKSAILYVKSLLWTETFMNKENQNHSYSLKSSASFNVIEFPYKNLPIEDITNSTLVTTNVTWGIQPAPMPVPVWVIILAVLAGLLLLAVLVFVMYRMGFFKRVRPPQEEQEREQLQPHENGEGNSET
Sequence of integrin αVβ3 expressed by osteocytes (P05106 27-788): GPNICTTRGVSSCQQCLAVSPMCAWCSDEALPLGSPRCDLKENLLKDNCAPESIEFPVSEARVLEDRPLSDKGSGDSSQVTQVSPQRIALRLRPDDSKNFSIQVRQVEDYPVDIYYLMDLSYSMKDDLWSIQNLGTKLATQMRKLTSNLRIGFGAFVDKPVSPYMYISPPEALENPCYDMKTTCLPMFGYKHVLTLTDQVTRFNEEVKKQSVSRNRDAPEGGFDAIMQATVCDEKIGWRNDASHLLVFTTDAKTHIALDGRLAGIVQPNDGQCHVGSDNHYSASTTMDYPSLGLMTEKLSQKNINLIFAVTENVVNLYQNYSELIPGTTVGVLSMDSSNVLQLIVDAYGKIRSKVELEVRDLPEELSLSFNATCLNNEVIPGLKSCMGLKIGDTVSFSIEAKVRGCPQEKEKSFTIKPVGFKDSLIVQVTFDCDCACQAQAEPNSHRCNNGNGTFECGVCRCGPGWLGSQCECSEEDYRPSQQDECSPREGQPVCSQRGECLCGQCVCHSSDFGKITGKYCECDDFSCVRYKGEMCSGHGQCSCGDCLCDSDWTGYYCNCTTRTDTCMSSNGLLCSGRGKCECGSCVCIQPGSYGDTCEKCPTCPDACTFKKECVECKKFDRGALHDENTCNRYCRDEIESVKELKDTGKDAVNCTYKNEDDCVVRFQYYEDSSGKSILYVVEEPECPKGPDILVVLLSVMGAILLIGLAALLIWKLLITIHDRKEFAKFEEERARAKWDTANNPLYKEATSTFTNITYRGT

O=P(O)(O)C(O)(Cc1cccnc1)P(=O)(O)O [risedronate]
Effects on pain (subjects with knee OA [1]; largest study, n=2483 (Bingham 2006)): favoring placebo over active drug

N#Cc1c(N(CC(=O)[O-])CC(=O)[O-])sc(C(=O)[O-])c1CC(=O)[O-].[Sr+2].[Sr+2] [strontium ranelate]
Risk of myocardial infarction (subjects with knee OA [1]; human, in vivo): increase the risk of myocardial infarction

PDLLVRGDNDVPPFSGDGQHFMH [SEQ ID No: 14]
Biological activities in bone cells of the other species (human and rat bone cells): interchangeably show biological activities in the bone cells of the other species

PDLQERGDNDISPFSGDGQPFKD [SEQ ID No: 12]
Binding to integrin αVβ3 [2]: selectively bind to integrin αVβ3

TDLQERGDNDISPFSGDGQPFKD [SEQ ID No: 10]
Safety and tolerability [3]: safe and well tolerated | Severe adverse events related to the peptide [3]: no severe adverse events | Treatment-related adverse events [3]: mild or moderate, transient

B1: Fibroblast Growth Factor-18 (protein, UniProt O76093 28-207, looked up)
Fibroblast growth factor 18: EENVDFRIHVENQTRARDDVSRKQLRLYQLYSRTSGKHIQVLGRRISARGEDGDKYAQLLVETDTFGSQVRIKGKETEFYLCMNRKGKLVGKPDGTSKECVFIEKVLENNYTALMSAKYSGWYVGFTKKGRPRKGPKTRENQQDVHFMKRYPKGQPELQKPFKYTTVTKRSRRIRPTHPA
notes: growth factor tested for cartilage regeneration in knee OA
Clinical outcomes such as knee function or pain vs placebo (subjects with knee OA [4]): no significant improvement | Tibiofemoral cartilage thickness (subjects with knee OA [4]): small but statistically significant increase
